Experimental data: PMC4669708 (Cell Death & Disease, 2015)

Key:
Experiment in all cases: c-ponatinib pulldown LC-MS/MS
Assay type in all cases: binding
[1] = molecular target: T1, CCT2 (Homo sapiens, UniProt P78371)
T1 sequence (P78371 1-535): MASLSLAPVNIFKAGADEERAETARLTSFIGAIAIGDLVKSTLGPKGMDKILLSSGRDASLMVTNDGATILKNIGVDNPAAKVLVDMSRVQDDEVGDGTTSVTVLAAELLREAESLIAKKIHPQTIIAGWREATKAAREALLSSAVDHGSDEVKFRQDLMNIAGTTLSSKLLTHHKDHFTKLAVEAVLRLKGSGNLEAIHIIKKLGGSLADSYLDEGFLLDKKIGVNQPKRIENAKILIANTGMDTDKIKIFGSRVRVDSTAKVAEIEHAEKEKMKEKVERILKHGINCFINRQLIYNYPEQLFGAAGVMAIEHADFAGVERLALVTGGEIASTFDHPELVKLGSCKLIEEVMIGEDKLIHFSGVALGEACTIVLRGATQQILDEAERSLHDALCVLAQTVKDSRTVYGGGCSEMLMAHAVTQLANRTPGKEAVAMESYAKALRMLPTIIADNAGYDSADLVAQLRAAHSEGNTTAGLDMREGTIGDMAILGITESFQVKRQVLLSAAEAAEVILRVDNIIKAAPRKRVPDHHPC
Outline: (§1)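 Affinity matrix: 25 nmol c-ponatinib/50 μl NHS-Sepharose; 10 mg whole cell lysate input; duplicate pulldowns, each run twice by LC-MS/MS. DTT/iodoacetamide, trypsin. Human SwissProt search, protein FDR <1%. Competition with free compound; fold reduction = median spectral count ratio.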

[2] = molecular target: CDK19 (Homo sapiens, UniProt Q9BWU1)
Chain of CDK19 (Q9BWU1 whole entry): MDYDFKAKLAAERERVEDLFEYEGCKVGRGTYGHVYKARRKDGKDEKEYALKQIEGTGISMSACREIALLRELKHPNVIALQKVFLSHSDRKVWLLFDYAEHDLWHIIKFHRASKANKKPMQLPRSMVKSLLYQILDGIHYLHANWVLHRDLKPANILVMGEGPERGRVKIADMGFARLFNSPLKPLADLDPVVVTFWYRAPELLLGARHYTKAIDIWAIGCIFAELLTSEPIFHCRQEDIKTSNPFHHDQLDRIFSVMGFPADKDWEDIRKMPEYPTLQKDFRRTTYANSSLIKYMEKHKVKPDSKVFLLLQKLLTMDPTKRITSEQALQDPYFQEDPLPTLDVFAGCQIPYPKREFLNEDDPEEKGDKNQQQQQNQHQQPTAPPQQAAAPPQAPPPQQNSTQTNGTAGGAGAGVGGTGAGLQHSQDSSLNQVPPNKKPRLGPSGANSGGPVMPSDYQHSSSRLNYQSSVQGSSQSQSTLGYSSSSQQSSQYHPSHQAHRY
Chain of CDK19 (P24863 whole entry partner): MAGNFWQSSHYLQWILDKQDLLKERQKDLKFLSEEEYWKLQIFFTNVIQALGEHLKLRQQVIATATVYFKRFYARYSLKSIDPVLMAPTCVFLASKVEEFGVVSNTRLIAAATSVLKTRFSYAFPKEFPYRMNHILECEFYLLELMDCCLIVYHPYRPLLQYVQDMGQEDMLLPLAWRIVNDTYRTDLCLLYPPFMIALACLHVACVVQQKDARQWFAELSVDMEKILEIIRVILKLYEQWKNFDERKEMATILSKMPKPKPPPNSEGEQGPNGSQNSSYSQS
Outline: as §1

[3] = molecular target: RAF1 (Homo sapiens, UniProt P04049)
Chain of RAF1 (P04049 whole entry): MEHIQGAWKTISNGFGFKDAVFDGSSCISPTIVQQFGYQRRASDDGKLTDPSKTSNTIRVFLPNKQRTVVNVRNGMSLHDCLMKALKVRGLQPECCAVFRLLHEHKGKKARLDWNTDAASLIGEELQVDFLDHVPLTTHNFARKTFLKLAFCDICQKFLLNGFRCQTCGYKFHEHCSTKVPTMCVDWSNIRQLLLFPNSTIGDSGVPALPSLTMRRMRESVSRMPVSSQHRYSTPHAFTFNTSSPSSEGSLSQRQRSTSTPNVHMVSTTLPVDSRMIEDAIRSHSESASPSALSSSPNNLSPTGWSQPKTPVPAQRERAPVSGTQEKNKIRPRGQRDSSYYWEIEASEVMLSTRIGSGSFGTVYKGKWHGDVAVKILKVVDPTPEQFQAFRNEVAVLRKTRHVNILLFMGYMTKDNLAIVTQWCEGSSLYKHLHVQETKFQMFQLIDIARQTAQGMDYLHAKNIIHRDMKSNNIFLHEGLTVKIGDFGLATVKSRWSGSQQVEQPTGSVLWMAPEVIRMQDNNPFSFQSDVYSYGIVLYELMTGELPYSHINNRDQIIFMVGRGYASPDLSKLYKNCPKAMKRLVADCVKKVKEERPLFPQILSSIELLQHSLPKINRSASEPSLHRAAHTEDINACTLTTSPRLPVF
Outline: as §1

[4] = molecular target: STK10 (Homo sapiens, UniProt O94804)
Chain of STK10 (O94804 whole entry): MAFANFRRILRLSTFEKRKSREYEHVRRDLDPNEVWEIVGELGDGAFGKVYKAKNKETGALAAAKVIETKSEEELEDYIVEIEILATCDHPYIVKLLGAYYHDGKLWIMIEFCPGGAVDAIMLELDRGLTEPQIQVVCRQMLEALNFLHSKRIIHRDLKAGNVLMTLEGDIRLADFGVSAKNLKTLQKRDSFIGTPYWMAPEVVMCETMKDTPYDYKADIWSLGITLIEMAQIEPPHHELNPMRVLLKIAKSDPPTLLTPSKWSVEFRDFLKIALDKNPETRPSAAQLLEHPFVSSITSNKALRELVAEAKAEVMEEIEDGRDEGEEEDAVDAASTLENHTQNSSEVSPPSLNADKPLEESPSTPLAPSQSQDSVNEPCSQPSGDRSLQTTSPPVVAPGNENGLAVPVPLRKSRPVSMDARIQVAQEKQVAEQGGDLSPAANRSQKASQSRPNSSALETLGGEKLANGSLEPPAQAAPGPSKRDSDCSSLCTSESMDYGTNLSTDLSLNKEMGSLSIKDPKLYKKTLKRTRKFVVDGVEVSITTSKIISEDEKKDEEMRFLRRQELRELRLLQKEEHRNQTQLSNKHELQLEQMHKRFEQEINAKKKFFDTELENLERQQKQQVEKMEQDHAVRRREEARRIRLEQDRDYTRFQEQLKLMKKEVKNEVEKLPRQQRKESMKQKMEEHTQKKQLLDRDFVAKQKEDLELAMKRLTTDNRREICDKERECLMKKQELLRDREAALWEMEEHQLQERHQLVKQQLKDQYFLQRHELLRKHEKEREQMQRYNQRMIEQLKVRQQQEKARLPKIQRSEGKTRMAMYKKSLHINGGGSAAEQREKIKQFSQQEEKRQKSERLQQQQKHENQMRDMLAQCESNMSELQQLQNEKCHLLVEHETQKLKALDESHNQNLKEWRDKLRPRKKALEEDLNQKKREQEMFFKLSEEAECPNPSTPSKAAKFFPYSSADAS
Outline: as §1

[5] = molecular target: T2, YWHAG (Homo sapiens, UniProt P61981)
T2 sequence (P61981 1-247): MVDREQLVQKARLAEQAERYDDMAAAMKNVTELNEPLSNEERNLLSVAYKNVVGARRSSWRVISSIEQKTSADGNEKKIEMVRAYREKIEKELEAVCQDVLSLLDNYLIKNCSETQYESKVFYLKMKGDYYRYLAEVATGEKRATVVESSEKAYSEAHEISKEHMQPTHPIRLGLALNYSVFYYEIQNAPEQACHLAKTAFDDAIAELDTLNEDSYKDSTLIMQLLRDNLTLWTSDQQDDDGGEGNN
Outline: as §1

SMILES: Cc1ccc(C(=O)Nc2ccc(CN3CCN(CCCN)CC3)c(C(F)(F)F)c2)cc1C#Cc1cnc2cccnn12 [c-ponatinib]
- Av. SC comp. ([1]; + free ponatinib): 0
- Total SC comp. ([1]; + free ponatinib): 0
- Av. SC ([1]; no competitor): 3.5
- Total SC ([1]; no competitor): 14
- Av. SC comp. ([2]; + free ponatinib): 0
- Total SC comp. ([2]; + free ponatinib): 0
- Av. SC ([2]; no competitor): 7.5
- Total SC ([2]; no competitor): 30
- Av. SC comp. ([3]; + free ponatinib): 0
- Total SC comp. ([3]; + free ponatinib): 0
- Av. SC ([3]; no competitor): 1.25
- Total SC ([3]; no competitor): 5
- Av. SC comp. ([4]; + free ponatinib): 0
- Total SC comp. ([4]; + free ponatinib): 0
- Av. SC ([4]; no competitor): 5.5
- Total SC ([4]; no competitor): 22
- Av. SC comp. ([5]; + free ponatinib): 3.25
- Total SC comp. ([5]; + free ponatinib): 13
- Av. SC ([5]; no competitor): 11.25
- Total SC ([5]; no competitor): 45
